“And” between values parts separate entries of the source, which are not always exact repeats. Equal values may be shown once.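 Compound exposure: 48 hours, 5 concentrations, 96-well plates. GI50 marks 50% less growth. TGI marks complete inhibition of growth.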

Some test systems named below: XF 498 CNS; SNB-75 CNS; HT29 colon; NCI-H226 lung; SK-MEL-28 melanoma; SK-MEL-5 melanoma; NCI-H460 lung; SK-OV-3 ovarian; SF-539 CNS; M19-MEL melanoma; MDA-MB-435.
Holding throughout (experiment): inhibition of tumour cell growth, NCI panel, 48 h

For the molecule `C[C@H](CCC1SC1(C)C)C1CCC2(C)C3=C(CC[C@]12C)[C@@]1(C)CC[C@H](O)C(C)(C)C1CC3` (some centres not stated), the TGI in the assay with XF 498 CNS, in the assay with SNB-75 CNS, in the assay with HT29 colon, in the assay with NCI-H226 lung, in the assay on SK-MEL-28 melanoma and with SK-MEL-5 melanoma was > 100 µM each time. Also, the TGI with NCI-H460 lung and in the assay on SK-OV-3 ovarian was > 100 µM in each case.
For `C/C(N=NS(=O)(=O)c1ccc([N+](=O)[O-])cc1)=C1\C=CC=CN1O`, the TGI in the assay on XF 498 CNS, with SF-539 CNS, in the assay with SNB-75 CNS, in the assay with HT29 colon, in the assay on M19-MEL melanoma and with SK-MEL-28 melanoma was > 100 µM throughout. Moreover, the TGI with SK-MEL-5 melanoma, in the assay on NCI-H460 lung and with SK-OV-3 ovarian was > 100 µM throughout.
`NC(=S)N1N=C2c3ccccc3CC[C@H]2[C@@H]1c1ccc(Cl)cc1`: the TGI was 60.6 µM in the assay on XF 498 CNS; > 100 µM in the assay on SF-539 CNS; > 100 µM in the assay with HT29 colon; 51.5 µM in the assay with NCI-H226 lung; > 100 µM in the assay with M19-MEL melanoma; > 100 µM in the assay with SK-MEL-28 melanoma. For the same molecule, the TGI in the assay on NCI-H460 lung and with SK-OV-3 ovarian was > 100 µM in each case.
As for `Cn1cc(C(=O)c2ccccc2)cc(C(=O)c2ccccc2)c1=O`, the TGI in the assay on XF 498 CNS, in the assay on SF-539 CNS, in the assay with SNB-75 CNS, in the assay with HT29 colon, with NCI-H226 lung and with M19-MEL melanoma was > 100 µM in each case. Further, the TGI with SK-MEL-28 melanoma, in the assay with SK-MEL-5 melanoma, in the assay on NCI-H460 lung and with SK-OV-3 ovarian was > 100 µM throughout.
As for `Cc1nc2sc(C(=O)c3ccc(Cl)cc3)c(N)c2c(-c2ccccc2Cl)c1C(=O)Nc1ccccc1`, the TGI was determined as 33.1 µM with MDA-MB-435; 30.5 µM in the assay on SF-539 CNS; 29.7 µM in the assay with SNB-75 CNS; 31.3 µM with HT29 colon; 62.1 µM in the assay with NCI-H226 lung; 27.4 µM in the assay with SK-MEL-28 melanoma. The results for the TGI in the assay with SK-MEL-5 melanoma, in the assay on NCI-H460 lung and in the assay with SK-OV-3 ovarian were 36.6 µM, 28.8 µM and 31.3 µM, respectively.
`COC1(CC[C@@H](C)COC2OC(CO)C(O)C(O)C2O)O[C@H]2C[C@H]3[C@@H]4CC=C5C[C@@H](OC6OC(CO)C(O)C(OC7OC(CO)C(O)C(O)C7O)C6OC6OC(C)C(O)C(O)C6O)CC[C@]5(C)[C@H]4CC[C@]3(C)[C@H]2[C@@H]1C` (some centres not stated): the TGI in the assay with MDA-MB-435 was 8.52 µM; in the assay with SF-539 CNS, 7.11 µM; with SNB-75 CNS, 11.2 µM; with HT29 colon it was > 23.1 µM; in the assay with NCI-H226 lung, 26.5 µM; in the assay on SK-MEL-28 melanoma, 12.4 µM. Also, the TGI in the assay with SK-MEL-5 melanoma was found to be 27.5 µM; with NCI-H460 lung, 14.8 µM; in the assay on SK-OV-3 ovarian, 15 µM.
As to `C#CCN(Cc1ccc2nc(-c3ccccc3)c(N)nc2c1)c1cc(OC)c(OC)c(OC)c1`, the TGI with XF 498 CNS was 59.5 µM; in the assay on SF-539 CNS it was > 100 µM; with SNB-75 CNS it was 83.5 µM; in the assay with HT29 colon, 59 µM; with NCI-H226 lung, 52 µM; in the assay with M19-MEL melanoma it was > 100 µM. The TGI in the assay on SK-MEL-28 melanoma was > 100 µM; in the assay with SK-MEL-5 melanoma, 25.7 µM; in the assay on NCI-H460 lung, 81.1 µM.
Consider `CC(Oc1ccccc1)C(=O)NNC(=O)OC(C)(C)C` (configuration not stated), for which the TGI in the assay on MDA-MB-435, in the assay with SF-539 CNS, with SNB-75 CNS, with HT29 colon, with NCI-H226 lung and in the assay on SK-MEL-28 melanoma was > 100 µM throughout. Moreover, the TGI with SK-MEL-5 melanoma, in the assay with NCI-H460 lung and in the assay on SK-OV-3 ovarian was > 100 µM in each case.
For `CC(C)=CC(=O)c1[nH]c2ccccc2c1CC(=O)NCCc1cncn1C`, the TGI in the assay on MDA-MB-435, with SF-539 CNS, with SNB-75 CNS, in the assay on HT29 colon, with NCI-H226 lung and in the assay on SK-MEL-28 melanoma was > 100 µM in each case. In addition, the TGI in the assay with SK-MEL-5 melanoma, in the assay with NCI-H460 lung and in the assay with SK-OV-3 ovarian was > 100 µM each time.
`CC(=O)OCC1OC(n2c(S)c(C#N)c(-c3ccccc3)c(C#N)c2=O)C(OC(C)=O)C(OC(C)=O)C1OC(C)=O` (configuration not stated): the GI50 is > 100 µM and 17.2 µM in the assay on MDA-MB-435; 51.6 µM and 25.7 µM with SF-539 CNS; > 100 µM and 24.3 µM with HT29 colon; > 100 µM and 25.7 µM in the assay on SK-MEL-28 melanoma; > 100 µM and 20.2 µM in the assay on SK-MEL-5 melanoma; 99.5 µM and 32.1 µM with SK-OV-3 ovarian. Moreover, the TGI with MDA-MB-435 is > 100 µM and 34.6 µM; with SF-539 CNS, > 100 µM and 70.9 µM; in the assay with SNB-75 CNS, 56.5 µM and 72.4 µM; with HT29 colon, > 100 µM and 52.8 µM; with NCI-H226 lung, > 100 µM; in the assay on SK-MEL-28 melanoma, > 100 µM and 62.8 µM. For the same molecule, the TGI in the assay on SK-MEL-5 melanoma was > 100 µM and 41.6 µM; with NCI-H460 lung, > 100 µM; in the assay with SK-OV-3 ovarian it was > 100 µM and 96.6 µM.
Regarding `O=c1[nH]cnc2c(COCCO)c[nH]c12`, the TGI with XF 498 CNS, with SF-539 CNS, in the assay with SNB-75 CNS, in the assay with HT29 colon, with NCI-H226 lung and in the assay with M19-MEL melanoma was > 100 µM in each case. Further, the TGI with SK-MEL-28 melanoma, in the assay on SK-MEL-5 melanoma, in the assay with NCI-H460 lung and in the assay on SK-OV-3 ovarian was > 100 µM each time.
For the molecule `C(=Nc1ccc(-c2nc3ccccc3s2)cc1)c1ccc[nH]1`, the TGI is 41 µM in the assay with MDA-MB-435; 37.3 µM in the assay with SF-539 CNS; 55.7 µM in the assay on SNB-75 CNS; 38.8 µM in the assay on HT29 colon; 35.6 µM in the assay on NCI-H226 lung; 42.5 µM with SK-MEL-28 melanoma. Further, the TGI with SK-MEL-5 melanoma was found to be 30.7 µM; with NCI-H460 lung, 38.1 µM; in the assay on SK-OV-3 ovarian it was 51.6 µM.
Regarding `Cc1nc2cc(Nc3ccccc3C(=O)O)ccc2s1`, the TGI in the assay on SF-539 CNS, in the assay with SNB-75 CNS, with HT29 colon, in the assay on M19-MEL melanoma, in the assay on SK-MEL-28 melanoma and in the assay on SK-MEL-5 melanoma was > 100 µM each time. Besides, the TGI in the assay with NCI-H460 lung and in the assay on SK-OV-3 ovarian was > 100 µM in each case.
